The record followed here is patent US20100034757A1, “EXTRACT POWDER OF INDIGO PLANT, AND ITS PREPARATION AND USES” (priority 2006, published 2010).

The subject of assay [1] is S. sobrinus. Kind of assay: Minimum inhibitory concentration (MIC), Experiment 13. Type of assay: cell-based. The following applies: Streptococcus sobrinus, read-out: Minimum inhibitory concentration (MIC). As to the method:
(§1) The following experiment was conducted to examine the influence of an extract powder of indigo plant on microorganisms in human oral cavity. An extract powder of indigo plant, prepared by the method in the later described Example 1, was dissolved in refined water to obtain an aqueous solution with a concentration of 1.5% indigo plant extract, d.s.b. Using the aqueous solution, the minimum inhibitory concentration (may be designated as “MIC”, hereinafter) against microorganisms in human oral cavity (microorganisms as causatives of periodontal diseases and dental caries) was determined. Tryptanthrin, gallic acid, and caffeic acid, which had been confirmed to be contained in the indigo extract, were determined for MIC against microorganisms in human oral cavity, and the data was shown in Table 9 in parallel. The following method was used for assaying MIC.
(§2) The MICs of an extract powder of indigo plant, tryptanthrin, gallic acid, and caffeic acid against microorganisms in human oral cavity were determined according to the standard method of Japanese Society of Chemotherapy (see “Saikin-Shinkin-Kensa (Test for Bacteria and Fungi), 2nd Edition”, pp. 524-529 (1982)). Examples of microorganisms, used as causatives of periodontal diseases, were microorganisms of Prophyromonas gingivalis strains such as JCM8525, JCM12257, and ATCC 33277 strains; those of Actinobacillus actinomycetemcomitans (may be abbreviated as “A. actinomycetemcomitans”) such as JCM2434 and JCM8577 strains; Prevotella intermedia (may be abbreviated as P. intermedia) JCM7365 strain; and Campylobacter rectus (may be abbreviated as C. rectus) JMC6301 strain. Examples of microorganisms, used as causatives of dental caries, were Streptococcus mutans strains such as OMZ-175, OMZ-176, OMZ-65, OMZ-61, B-13D, and Ingbritt strains; and Streptococcus sobrinus (may be abbreviated as “S. sobrinus”) 6715 strain. Among these microorganisms, those which are causatives of periodontal diseases were cultured at 37° C. for 48 hours, while those which are causatives of dental caries were cultured at 37° C. for 18 to 24 hours under anaerobic conditions by using a brain heart infusion (abbreviated as “BHI”, hereinafter), commercialized by Difco Laboratories, Detroit, USA, supplemented with 5 μg/ml of hemin, and 0.5 μg/ml of vitamin K3. The resulting cultures of the microorganisms, as causatives of both periodontal diseases and dental caries, were respectively diluted into solutions with 10^8 cells and 10^6 cells.

Assay [2] concerns C. rectus. Described as above. Type of assay: cell-based. The following applies: Campylobacter rectus, read-out: Minimum inhibitory concentration (MIC). As to the method:
as §1, §2

For assay [3], the system named is P. intermedia. Described as above. The following applies: Prevotella intermedia, read-out: Minimum inhibitory concentration (MIC). Type of assay: cell-based. How it is done: as §1, §2
Assay [4] has as its system S. mutans. The assay is described as above. Type of assay: cell-based. The following applies: Streptococcus mutans. How it is done: as §1, §2
Assay [5] relates to A. actinomycetemcomitans. Described as above. Type of assay: cell-based, Actinobacillus actinomycetemcomitans. The following applies: for MIC: Aggregatibacter actinomycetemcomitans, read-out: Minimum inhibitory concentration (MIC). As to the method:
as §1, §2

Assay [6] deals with P. gingivalis. The assay is described as above. The note with it: for MIC: Porphyromonas gingivalis. The format is cell-based, Prophyromonas gingivalis. As to the method: as §1, §2
Assay [7] deals with mouse melanoma B16 cells. Briefly: Influence of extract powder and other skin-whitening ingredients on melanin formation (Test 2 for in vitro skin-whitening effect, Experiment 4). Type of assay: cell-based. Set-up: Judgement, 1.25% extract powder of indigo plant: key to the marks not given beside the values. The following applies: 72 hours. How it is done:
The following experiment was conducted to examine the influence of an extract powder of indigo plant and other ingredients with skin-whitening action on melanin formation. Mouse melanoma B16 cells were cultured for 24 hours, and to the resulting culture was added any one of the test solutions to give a composition ratio (%) of each of […], followed by culturing for 72 hours. The viable cells were counted and packed into a capillary tube for color observation. The judgement of the effects was evaluated based on the same criterion as in Experiment 1. In this experiment system, the effect in the case of culturing the cells with addition of 0.025% of the extract powder of indigo extract was judged to be “+”.

Assay [8] deals with mouse melanoma B16 cells. Briefly: Influence on melanin formation, blackening of cells (Test 1 for in vitro whitening effect, Experiment 3). The following applies: medium containing 2.5 mM; cultured 72 hours. The format is cell-based. How it is done: Using a dried leaf of Polygonum tinctorium Lour., Japanese knotweed, buckwheat, or knotgrass as a plant of the family Polygonaceae, extract powders of which were prepared. The extract powders of indigo plant were prepared by the method in later described Example 2. According to the same method as in Example 2, using a dried leaf of Japanese knotweed, buckwheat, or knotgrass in place of the one of Polygonum tinctorium Lour., extract powders of the above plants were prepared for use in the following experiment, where, as an extract powder of indigo plant, the one prepared by the method in later described Example 2 was used, unless specified otherwise. […] After counting the number of viable cells, the viable cells were packed into a capillary tube for color observation. […] The degree of blackening of the B16 cells was evaluated based on the following criterion, and the results are in Table 3. Evaluations with Reference to the Blackening Degree of Control Free of Agent: −: Unchanged; ±: Slight inhibition of blackening; +: Positive inhibition of blackening; ++: Clear inhibition of blackening; +++: Complete inhibition of blackening.

Where [9] appears, read: strain B-13D, read-out: Minimum inhibitory concentration (MIC).
[10] abbreviates: strain Ingbritt, read-out: Minimum inhibitory concentration (MIC).
[11] abbreviates: strain OMZ-61, read-out: Minimum inhibitory concentration (MIC).
[12] abbreviates: strain OMZ-65, read-out: Minimum inhibitory concentration (MIC).
Setting [13] is: strain OMZ-175, read-out: Minimum inhibitory concentration (MIC).
[14] abbreviates: strain OMZ-176, read-out: Minimum inhibitory concentration (MIC).
Setting [15] is: strain JMC12257, read-out: Minimum inhibitory concentration (MIC).
[16] abbreviates: ingredient 1.0% in combination with extract powder of indigo plant.
Setting [17] is: ingredient 0.5% in combination with extract powder of indigo plant.

Values after ≈ are worked out from the molar mass of the structure shown. Read-outs that look alike come from different tables or passages of the source.

On to `O=C(O)c1cc(O)c(O)c(O)c1` [Gallic acid], for which the MIC turned out to be 800 µg/mL (≈ 4700 µM) in assay [1] (strain 6715); 400 µg/mL (≈ 2350 µM) in assay [2] (strain JMC6301); 400 µg/mL (≈ 2350 µM) in assay [3] (strain JMC7365); 200 µg/mL (≈ 1180 µM) in assay [4] (setting [9]); 1600 µg/mL (≈ 9410 µM) in assay [4] (setting [10]); 200 µg/mL (≈ 1180 µM) in assay [4] (setting [11]). In addition, the MIC came out at 1600 µg/mL (≈ 9410 µM) in assay [4] (setting [12]); 400 µg/mL (≈ 2350 µM) in assay [4] (setting [13]); 400 µg/mL (≈ 2350 µM) in assay [4] (setting [14]); 800 µg/mL (≈ 4700 µM) in assay [5] (strain JMC2434); 800 µg/mL (≈ 4700 µM) in assay [5] (strain JMC8577); 400 µg/mL (≈ 2350 µM) in assay [6] (setting [15]). Moreover, the “Minimum inhibitory concentration (MIC)” value in assay [6] (strain JCM8525) and in assay [6] (strain JMC33277) was 400 µg/mL (≈ 2350 µM) throughout.
Take `O=C1c2ccccc2-n2c1nc1ccccc1c2=O` [Tryptanthrin]: the MIC in assay [1] stood at 25 µg/mL (≈ 101 µM); in assay [2] it was 25 µg/mL (≈ 101 µM); in assay [3], 6.25 µg/mL (≈ 25.2 µM); in assay [4] (read-out: Minimum inhibitory concentration (MIC), strain B-13D) it was 6.25 µg/mL (≈ 25.2 µM); in assay [4] (read-out: Minimum inhibitory concentration (MIC), strain Ingbritt) it was 25 µg/mL (≈ 101 µM); in assay [4] (read-out: Minimum inhibitory concentration (MIC), strain OMZ-61) it was 6.25 µg/mL (≈ 25.2 µM). Besides, the MIC in assay [4] (read-out: Minimum inhibitory concentration (MIC), strain OMZ-65) was determined as 12.5 µg/mL (≈ 50.4 µM); in assay [4] (read-out: Minimum inhibitory concentration (MIC), strain OMZ-175), 6.25 µg/mL (≈ 25.2 µM); in assay [4] (read-out: Minimum inhibitory concentration (MIC), strain OMZ-176), 12.5 µg/mL (≈ 50.4 µM); in assay [5], 25 µg/mL (≈ 101 µM); in assay [6] (read-out: Minimum inhibitory concentration (MIC), strain JMC8525), 6.25 µg/mL (≈ 25.2 µM); in assay [6] (read-out: Minimum inhibitory concentration (MIC), strain JMC12257) it was 12.5 µg/mL (≈ 50.4 µM). Also, in assay [6] (read-out: Minimum inhibitory concentration (MIC), strain JMC33277), the MIC is 12.5 µg/mL (≈ 50.4 µM). In assay [5] (strain JMC2434), the “Minimum inhibitory concentration (MIC)” value was 25 µg/mL (≈ 101 µM).
As for `O=C(O)/C=C/c1ccc(O)c(O)c1` [Caffeic acid], the MIC was 800 µg/mL (≈ 4440 µM) in assay [1] (strain 6715); 100 µg/mL (≈ 555 µM) in assay [2] (strain JMC6301); 400 µg/mL (≈ 2220 µM) in assay [3] (strain JMC7365); 200 µg/mL (≈ 1110 µM) in assay [4] (setting [9]); 1600 µg/mL (≈ 8880 µM) in assay [4] (setting [10]); 400 µg/mL (≈ 2220 µM) in assay [4] (setting [11]). The MIC in assay [4] (setting [12]) worked out at 200 µg/mL (≈ 1110 µM); in assay [4] (setting [13]), 400 µg/mL (≈ 2220 µM); in assay [4] (setting [14]), 800 µg/mL (≈ 4440 µM); in assay [5] (strain JMC2434), 400 µg/mL (≈ 2220 µM); in assay [5] (strain JMC8577) it was 200 µg/mL (≈ 1110 µM); in assay [6] (setting [15]), 400 µg/mL (≈ 2220 µM). Further, the “Minimum inhibitory concentration (MIC)” value in assay [6] (strain JCM8525) and in assay [6] (strain JMC33277) was 400 µg/mL (≈ 2220 µM) each time.
Regarding `COc1ccc(C(=O)[O-])c(O)c1.[K+]` [4-Methoxysalicylic acid potassium salt], the “Judgement, With no extract powder of indigo plant” value (from here on “Judgement, With no extract powder”) in assay [7] (composition ratio 1.0%) is reported as “+”. The “Judgement, 1.25% extract powder of indigo plant” value (“Judgement, 1.25% extract powder” for short) in assay [7] (setting [16]) is “+++”.
For `O=c1oc2c(O)c(O)cc3c(=O)oc4c(O)c(O)cc1c4c23` [Ellagic acid], the “Judgement, With no extract powder” value in assay [7] (composition ratio 0.5%) is “±”. The “Judgement, 1.25% extract powder” value in assay [7] (setting [17]) was “++”.
Take `COc1cc(CCC(=O)CC(=O)CCc2ccc(O)c(OC)c2)ccc1O` [Tetrahydrocurcumin]: the “Judgement, With no extract powder” value in assay [7] (composition ratio 0.5%) was “±”. Further, the “Judgement, 1.25% extract powder” value in assay [7] (setting [17]) is on record as “++”.
As to `O=C1O[C@H]([C@@H](O)CO)C([O-])=C1O.[Na+]` [Sodium L-ascorbate], the “Judgement, With no extract powder” value in assay [7] (composition ratio 2.0%) is given as “+”. Besides, the “Judgement, 1.25% extract powder” value in assay [7] (ingredient 2.0% in combination with extract powder of indigo plant) is listed as “+++”.
As to `NC[C@H]1CC[C@H](C(=O)O)CC1` [Tranexamic acid], in assay [7] (composition ratio 1.0%), the “Judgement, With no extract powder” value is recorded as “±”. For the same molecule, the “Judgement, 1.25% extract powder” value in assay [7] (setting [16]) is given as “++”.
Turning to `CCCCc1ccc(O)cc1O` [4-n-Butylresorcinol], the “Judgement, With no extract powder” value in assay [7] (composition ratio 0.5%) is recorded as “+”. In assay [7] (setting [17]), the “Judgement, 1.25% extract powder” value is listed as “+++”.
For `CCCCC/C=C\C/C=C\CCCCCCCC(=O)O` [Linoleic acid] the same measures were “±” and “++”.
For the molecule `O=c1cc(CO)occ1O` [Kojic acid], the “Judgement (inhibition of blackening of B16 cells)” value in assay [8] is recorded as “+”. Also, the “Judgement, With no extract powder” value in assay [7] (composition ratio 1.0%) was “+”. Further, the “Judgement, 1.25% extract powder” value in assay [7] (setting [16]) was “+++”.
For the molecule `OC[C@H]1O[C@@H](Oc2ccc(O)cc2)[C@H](O)[C@@H](O)[C@@H]1O` [Arbutin], the “Judgement, With no extract powder” value in assay [7] (composition ratio 0.5%) is “+”. Moreover, the “Judgement, 1.25% extract powder” value in assay [7] (setting [17]) is reported as “+++”.
